Experimental findings from patent publication US7838498B2, “Benzylic glycoside derivatives and methods of use” (Theracos, Inc., priority 2007, dated 2010) are described below.

One test deals with T1, human SGLT2 (Homo sapiens, UniProt P31639).
T1 construct: A full-length cDNA clone expressing human SGLT2 (GenScript Corporation) was subcloned
T1 sequence (P31639 1-672): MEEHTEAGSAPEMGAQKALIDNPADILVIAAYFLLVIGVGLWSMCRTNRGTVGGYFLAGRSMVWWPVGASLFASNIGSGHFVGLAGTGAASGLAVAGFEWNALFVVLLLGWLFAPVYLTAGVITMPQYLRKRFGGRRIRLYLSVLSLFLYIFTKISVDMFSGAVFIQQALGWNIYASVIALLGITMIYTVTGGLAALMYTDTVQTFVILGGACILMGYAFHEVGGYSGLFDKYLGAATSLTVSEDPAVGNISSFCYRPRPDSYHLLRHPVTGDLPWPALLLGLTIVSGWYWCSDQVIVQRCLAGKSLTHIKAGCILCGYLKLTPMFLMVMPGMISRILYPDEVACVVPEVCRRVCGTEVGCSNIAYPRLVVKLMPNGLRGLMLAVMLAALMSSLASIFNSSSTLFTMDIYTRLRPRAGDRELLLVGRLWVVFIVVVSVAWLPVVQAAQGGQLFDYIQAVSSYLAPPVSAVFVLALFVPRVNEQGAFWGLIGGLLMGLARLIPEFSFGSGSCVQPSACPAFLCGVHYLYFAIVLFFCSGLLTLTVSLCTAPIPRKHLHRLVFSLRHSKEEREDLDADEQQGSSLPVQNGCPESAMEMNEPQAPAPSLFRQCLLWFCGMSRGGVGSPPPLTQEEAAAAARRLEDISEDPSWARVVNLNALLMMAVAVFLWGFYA
Kind of test: Methyl-α-D-[U-14C]glucopyranoside uptake assay, cells stably expressing human SGLT2. Format: cell-based. The following applies: HEK293.ETN cells expressing human SGLT2, 1.5 h incubation. The text has this: A full-length cDNA clone expressing human SGLT2 (GenScript Corporation) was subcloned into […] and Not I sites of pEAK15 expression vector. Clones harboring the cDNA inserts were identified by restriction analysis.
Plasmid containing human SGLT2 was linearized with Nsi I and purified by agarose gel electrophoresis. Using Lipofectamine 2000 Transfection Reagent (Invitrogen Corporation), DNA was transfected into HEK293.ETN cells and cultured in Dulbecco's Modified Eagle Medium (DMEM) containing 10% fetal bovine serum (FBS) at 37° C. under 5% CO2 for 24 h. Transfectants were selected in the same growth medium supplemented with puromycin (Invitrogen Corporation) for two weeks. Puromycin-resistant cells were recovered and seeded on a fresh 96-well plate (single cell per well) and cultured in the presence of puromycin until cells became confluent. Puromycin-resistant clones were evaluated for SGLT2 activity in the methyl-α-D-[U-^14C]glucopyranoside uptake assay described below.
(§1) Cells expressing SGLT1 or SGLT2 were seeded on 96-well ScintiPlate scintillating plates (PerkinElmer, Inc.) in DMEM containing 10% FBS (1×10^5 cells per well in 100 μL medium) incubated at 37° C. under 5% CO2 for 48 h prior to the assay. Cells were washed twice with 150 μL of either sodium buffer (137 mM NaCl, 5.4 mM KCl, 2.8 mM CaCl2, 1.2 mM MgCl2, 10 mM tris(hydroxymethyl)aminomethane/N2-hydroxyethylpiperazine-N′-ethanesulfonic acid [Tris/Hepes], pH 7.2) or sodium-free buffer (137 mM N-methyl-glucamine, 5.4 mM KCl, 2.8 mM CaCl2, 1.2 mM MgCl2, 10 mM Tris/Hepes, pH 7.2). Test compound in 50 μL each of sodium or sodium-free buffer containing 40 μCi/L methyl-α-D-[U-^14C]glucopyranoside (Amersham Biosciences/GE Healthcare), either with (symbols in parentheses) or without (symbols without parentheses) 25% human serum, was added per well of a 96-well plate and incubated at 37° C. with shaking for either 2 h (SGLT1 assay) or 1.5 h (SGLT2 assay). Cells were washed twice with 150 μL of wash buffer (137 mM N-methylglucamine, 10 mM Tris/Hepes, pH 7.2) and methyl-α-D-[U-^14C]glucopyranoside uptake was quantitated using a TopCount scintillation counter (PerkinElmer, Inc.). Sodium-dependent glucopyranoside uptake was measured by subtracting the values obtained with sodium-free buffer from those obtained using sodium buffer (average of triplicate determinations).

The next test addresses T2, human SGLT1 (Homo sapiens, UniProt P13866).
T2 construct: Full-length human SGLT1 cDNA on pDream2.1 expression vector was obtained from GenScript Corporation; host or cells: COS-7 cells (American Type Culture Collection)
T2 sequence (P13866 1-664): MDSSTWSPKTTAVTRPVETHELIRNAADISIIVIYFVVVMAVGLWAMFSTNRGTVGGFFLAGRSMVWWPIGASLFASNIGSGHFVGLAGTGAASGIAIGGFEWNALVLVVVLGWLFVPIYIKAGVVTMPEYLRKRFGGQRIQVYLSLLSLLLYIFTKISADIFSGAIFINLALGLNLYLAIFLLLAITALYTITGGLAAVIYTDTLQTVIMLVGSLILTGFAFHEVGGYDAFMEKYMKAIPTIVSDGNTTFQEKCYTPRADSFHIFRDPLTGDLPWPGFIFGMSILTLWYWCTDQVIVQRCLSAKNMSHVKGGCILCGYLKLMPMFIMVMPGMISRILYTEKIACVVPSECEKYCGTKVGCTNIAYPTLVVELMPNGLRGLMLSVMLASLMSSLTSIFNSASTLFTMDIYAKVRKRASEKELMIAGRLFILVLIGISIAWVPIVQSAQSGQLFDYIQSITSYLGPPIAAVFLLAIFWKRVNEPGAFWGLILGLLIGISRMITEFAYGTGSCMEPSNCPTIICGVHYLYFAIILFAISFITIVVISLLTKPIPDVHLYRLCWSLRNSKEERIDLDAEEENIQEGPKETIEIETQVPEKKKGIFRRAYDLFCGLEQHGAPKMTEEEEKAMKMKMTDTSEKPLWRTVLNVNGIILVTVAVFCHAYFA
Kind of test: Methyl-α-D-[U-14C]glucopyranoside uptake assay, COS-7 cells expressing human SGLT1. Format: cell-based. To be noted: COS-7 cells expressing human SGLT1, 2 h incubation. How it is done:
Full-length human SGLT1 cDNA on pDream2.1 expression vector was obtained from GenScript Corporation and propagated in Escherichia coli strain DH5α using Luria-Bertani (LB) medium containing ampicillin. Plasmid DNA was isolated using the QIAGEN Plasmid Midi Kit (QIAGEN Inc.). […] Transfected cells were stored in DMEM containing 10% dimethyl sulfoxide (DMSO) at −80° C.
as §1

[1] abbreviates: without human serum (symbols without parentheses).
[2] abbreviates: with 25% human serum (symbols in parentheses).

With `C=CCOCCOc1cc(Cl)c(Cc2ccc(CC)cc2)cc1[C@@H]1O[C@H](CO)[C@@H](O)[C@H](O)[C@H]1O` [Compound AW, (2S,3R,4R,5S,6R)-2-(2-(2-(allyloxy)ethoxy)-4-chloro-5-(4-ethylbenzyl)phenyl)-6-(hydroxymethyl)tetrahydro-2H-pyran-3,4,5-triol], the IC50 at human SGLT2 (setting [1]) was under 1 µM; on human SGLT1 (setting [1]), over 10 µM.

Consider `CCc1ccc(Cc2cc([C@@H]3O[C@H](CO)[C@@H](O)[C@H](O)[C@H]3O)c(OCCOCC(F)(F)F)cc2Cl)cc1` [Compound BS, (2S,3R,4R,5S,6R)-2-(4-chloro-5-(4-ethylbenzyl)-2-(2-(2,2,2-trifluoroethoxy)ethoxy)phenyl)-6-(hydroxymethyl)tetrahydro-2H-pyran-3,4,5-triol], for which the IC50 was under 1 µM at human SGLT2 (setting [2]) and over 10 µM on human SGLT1 (setting [2]).

For the molecule `CCc1ccc(Cc2cc([C@@H]3O[C@H](CO)[C@@H](O)[C@H](O)[C@H]3O)c(COCC(O)COC)cc2Cl)cc1` (stereo partly drawn) [Compound W, (2S,3R,4R,5S,6R)-2-(4-chloro-5-(4-ethylbenzyl)-2-((2-hydroxy-3-methoxypropoxy)methyl)phenyl)-6-(hydroxymethyl)tetrahydro-2H-pyran-3,4,5-triol], the results for the IC50 at human SGLT2 (setting [1]) and on human SGLT1 (setting [1]) were under 1 µM and over 10 µM, respectively.

In the case of `C#CCOCCc1cc(Cl)c(Cc2ccc(CC)cc2)cc1[C@@H]1O[C@H](CO)[C@@H](O)[C@H](O)[C@H]1O` [Compound AM, (2S,3R,4R,5S,6R)-2-(4-chloro-5-(4-ethylbenzyl)-2-(2-(prop-2-ynyloxy)ethyl)phenyl)-6-(hydroxymethyl)tetrahydro-2H-pyran-3,4,5-triol], the 50% inhibitory concentration (IC50) at human SGLT2 (setting [1]) was under 1 µM; at human SGLT1 (setting [1]) it was over 10 µM.

Turning to `CCc1ccc(Cc2cc([C@@H]3O[C@H](CO)[C@@H](O)[C@H](O)[C@H]3O)c(OCCOC(F)(F)F)cc2Cl)cc1` [Compound BQ, (2S,3R,4R,5S,6R)-2-(4-chloro-5-(4-ethylbenzyl)-2-(2-(trifluoromethoxy)ethoxy)phenyl)-6-(hydroxymethyl)tetrahydro-2H-pyran-3,4,5-triol], the 50% inhibitory concentration (IC50) is under 1 µM at human SGLT2 (setting [2]) and over 10 µM on human SGLT1 (setting [2]).

As for `CCc1ccc(Cc2cc([C@@H]3O[C@H](CO)[C@@H](O)[C@H](O)[C@H]3O)c(CCOCC(F)F)cc2Cl)cc1` [Compound AI, (2S,3R,4R,5S,6R)-2-(4-chloro-2-(2-(2,2-difluoroethoxy)ethyl)-5-(4-ethylbenzyl)phenyl)-6-(hydroxymethyl)tetrahydro-2H-pyran-3,4,5-triol], the figures for the IC50 on human SGLT2 (setting [1]) and at human SGLT1 (setting [1]) were under 1 µM and over 10 µM, respectively.

Turning to `C#CCOCc1cc(Cl)c(Cc2ccc(CC)cc2)cc1[C@@H]1O[C@H](COC(C)=O)[C@@H](O)[C@H](O)[C@H]1O` [Compound BD, ((2R,3S,4R,5R,6S)-6-(4-chloro-5-(4-ethylbenzyl)-2-((prop-2-ynyloxy)methyl)phenyl)-3,4,5-trihydroxytetrahydro-2H-pyran-2-yl)methyl acetate], the IC50 at human SGLT2 (setting [1]) was under 1 µM; at human SGLT1 (setting [1]), over 10 µM.

As for `CCc1ccc(Cc2cc([C@@H]3O[C@H](CO)[C@@H](O)[C@H](O)[C@H]3O)c(CCOCCF)cc2Cl)cc1` [Compound AH, (2S,3R,4R,5S,6R)-2-(4-chloro-5-(4-ethylbenzyl)-2-(2-(2-fluoroethoxy)ethyl)phenyl)-6-(hydroxymethyl)tetrahydro-2H-pyran-3,4,5-triol], the results for the IC50 at human SGLT2 (setting [1]) and at human SGLT1 (setting [1]) were under 1 µM and 1 to 10 µM, respectively.

As for `C#CCOCc1cc(Cl)c(Cc2ccc(OCC)cc2)cc1[C@@H]1O[C@H](COC(C)=O)[C@@H](O)[C@H](O)[C@H]1O` [Compound CD, ((2R,3S,4R,5R,6S)-6-(4-chloro-5-(4-ethoxybenzyl)-2-((prop-2-ynyloxy)methyl)phenyl)-3,4,5-trihydroxytetrahydro-2H-pyran-2-yl)methyl acetate], the values for the half-inhibitory concentration (IC50) at human SGLT2 (setting [2]) and on human SGLT1 (setting [2]) were under 1 µM and over 10 µM, respectively.

Take `C=CCOCc1cc(Cl)c(Cc2ccc(CC)cc2)cc1[C@@H]1O[C@H](CO)[C@@H](O)[C@H](O)[C@H]1O` [Compound I, (2S,3R,4R,5S,6R)-2-(2-(allyloxymethyl)-4-chloro-5-(4-ethylbenzyl)phenyl)-6-(hydroxymethyl)tetrahydro-2H-pyran-3,4,5-triol]: the values for the IC50 on human SGLT2 (setting [1]) and on human SGLT1 (setting [1]) were under 1 µM and over 10 µM, respectively.

As for `CCc1ccc(Cc2cc([C@@H]3O[C@H](CO)[C@@H](O)[C@H](O)[C@H]3O)c(COCCOC)cc2Cl)cc1` [Compound S, (2S,3R,4R,5S,6R)-2-(4-chloro-5-(4-ethylbenzyl)-2-((2-methoxyethoxy)methyl)phenyl)-6-(hydroxymethyl)tetrahydro-2H-pyran-3,4,5-triol], the figures for the IC50 on human SGLT2 (setting [1]) and at human SGLT1 (setting [1]) were under 1 µM and over 10 µM, respectively.

With `CCc1ccc(Cc2cc([C@@H]3O[C@H](CO)[C@@H](O)[C@H](O)[C@H]3O)c(COCC(C)O)cc2Cl)cc1` (stereo partly drawn) [Compound M, (2S,3R,4R,5S,6R)-2-(4-chloro-5-(4-ethylbenzyl)-2-((2-hydroxypropoxy)methyl)phenyl)-6-(hydroxymethyl)tetrahydro-2H-pyran-3,4,5-triol], the values for the half-inhibitory concentration (IC50) at human SGLT2 (setting [1]) and on human SGLT1 (setting [1]) were under 1 µM and over 10 µM, respectively.

For the molecule `C=CCOCc1cc(Cl)c(Cc2ccc(OCC=C)cc2)cc1[C@@H]1O[C@H](CO)[C@@H](O)[C@H](O)[C@H]1O` [Compound BB, (2S,3R,4R,5S,6R)-2-(5-(4-(allyloxy)benzyl)-2-(allyloxymethyl)-4-chlorophenyl)-6-(hydroxymethyl)tetrahydro-2H-pyran-3,4,5-triol], the IC50 is under 1 µM on human SGLT2 (setting [2]) and over 10 µM on human SGLT1 (setting [2]).

Regarding `CC#CCOCCCc1cc(Cl)c(Cc2ccc(OCC)cc2)cc1[C@@H]1O[C@H](CO)[C@@H](O)[C@H](O)[C@H]1O` [Compound BO, (2S,3R,4R,5S,6R)-2-(2-(3-(but-2-ynyloxy)propyl)-4-chloro-5-(4-ethoxybenzyl)phenyl)-6-(hydroxymethyl)tetrahydro-2H-pyran-3,4,5-triol], the IC50 on human SGLT2 (setting [2]) is under 1 µM; at human SGLT1 (setting [2]), over 10 µM.

One may read the IC50 as the concentration that gives 50% inhibition.
